Eight compounds from patent EP0503537B1, “6,9 Bis(substituted-amino)benzo-[g]isoquinoline-5,10-diones” (THE UNIVERSITY OF VERMONT, priority 1991, dated 1992) can be followed below.

Each structure is given as a SMILES string. Converted amounts (≈) assume the structure as drawn. Like-named read-outs stand apart in the source and are kept apart here.

Data set [1] relates to human colon adenocarcinoma cell line (Lovo). As to the kind of experiment: MTT cytotoxicity assay on human colon adenocarcinoma Lovo cells. The settings on record: read-out: IC50 µg/ml±S.D. LoVo. In kind it is cell-based. The method, then: (§1) The evaluation of the "in vitro" cytotoxic activity of the compounds of the invention was performed using a human colon adenocarcinoma cell line (Lovo) isolated from a metastatic nodule and a subline with aquired resistance to a number of antitumor agents, among which doxorubicin, VP-16 and vincristine. […] The compounds were tested according to the MTT assay (Mosman, T., "Rapid Colorimetric assay for cellular growth and survival: application to proliferation and cytotoxicity assay", J. Immunol. Methods, (1983), 65, 55-63; Green, L.M., "Rapid colorimetric assay for cell viability; application to the quantitation of cytotoxic and growth inhibitory lymphokines", J. Immunol. Methods, (1984), 70, 257-268) in comparison with mitoxantrone, ametantrone and doxorubicin.
(§2) In vitro biological evaluation: MTT assay on human colon adenocarcinoma Lovo cells.
(§3) The MTT assay was performed according to Mosmann, T., J. Immunol. Methods, (1983), 65, 55-63 and Green, L. M., J. Immunol. Methods, (1984), 70, 257-268.
(§4) Immediately before use, compounds and reference standards are dissolved in proper solvent and subsequently further diluted in complete culture medium. Human colon adenocarcinoma cells Lovo and the subline resistant to doxorubicin (Lovo/DX) (2.5. 10^4 cells/ml) are plated in 96-well plates and preincubated for 24 hours in culture medium. After this time, the cells are exposed to drugs for 144 hours, then the thiazolyl blue tetrazolium bromide solution (MTT solution) is added and the cells are reincubated for 4 hours. The supernatant is removed and 150 µl of dimethylsulfoxide are added to solubilize formazan crystals. The plate is read at 570 nm with microplate reader and the inhibiting concentration of 50% cellular growth (IC50; µg/ml) is calculated.
A general note: Tetrazolium assays rely on reduction of a dye to a coloured formazan, in cell work by metabolically active cells.

In another data set the test system is Lovo/DX. As to the kind of experiment: MTT cytotoxicity assay on doxorubicin-resistant subline Lovo/DX. It is filed as cell-based, human. Particulars: for IC50: Homo sapiens, LoVo/DX, MTT assay, 144 hrs drug exposure, read-out: IC50 µg/ml±S.D. LoVo/Dx; for R.I.: R.I. = (IC50 LoVo/Dx)/(IC50 LoVo); for cross resistance with mitoxantrone and ametantrone: resistant subline Lovo/DX. The protocol: as §1, §2, §3, §4

The test system of data set [2] is P388 Murine Leukemia. As to the kind of experiment: In vivo P388 murine leukemia (iv/iv, d 1, 4, 7). The settings on record: for T/C% (range): median survival time; for TOX: toxic deaths/total number of mice; for LTS: tumor free at 60 days. The protocol:
P388 Murine Leukemia cells were maintained in vivo by serial intraperitoneal (i.p.) injections of 10^6 cells in DBA2 mice. For test purposes, CDF1 mice were inoculated intravenously (i.v.) with 10^6 P388 cells and treatment was initiated 24 hr later. The i.v. dose of drug was administered on days 1, 4 and 7. Mice were observed daily for signs of toxicity and survival. The date of death was recorded for each animal that died or was sacrificed during the 60 day study. The median survival time (MST) for each treatment group was calculated and the % T/C was determined using the following formula: % T/C = [(MST treated)/(MST control)] x 100 [formula]

The subject of data set [3] is P388 Murine Leukemia. As to the kind of experiment: In vivo ascitic P388 murine leukemia (ip/ip, d 1, 5, 9). More on the design: species or system CDF1 mice. The settings on record: for % T/C (range): median survival time; for TOX: toxic deaths/total No. of mice. The protocol:
Treatment was initiated approximately 24 hours after tumor transplantation and dosages of the drug were administered ip (P388 ip/ip) or iv (P388 iv/iv) according to preestablished protocols, usually at 3-day (P388 iv/iv) or 4-day (P388 ip/ip) intervals. The studies were done over a 60-day period and the date of death for each animal was recorded. The % T/C was determined using the mean survival time (MST) for each group according to the formula % T/C = [(MST treated)/(MST control)] x 100 [formula]
(§5) P388 Murine Leukemia cells were maintained in vivo by serial intraperitoneal (ip) injections of 10^6 cells in DBA2 mice. For test purposes, CDF1 mice were inoculated i.p. with 10^6 P388 cells and treatment was initiated 24 hours later. The i.p dose of drug was administered on days 1, 5 and 9. Mice were observed daily for signs of toxicity and survival. The date of death was recorded for each animal that died or was sacrificed during the 60-day study. The median survival time (MST) for each treatment group was calculated and the % T/C was determined using the following formula: % T/C = [(MST treated)/(MST control)] x 100 [formula]

A further data set relates to L1210 murine leukemia. Description: In vivo ascitic L1210 murine leukemia (ip/ip, d 1, 5, 9), protocol b, 10^5 cells. Also noted: species or system CDF1 mice. The settings on record: for %T/C: median survival time; for TOX: toxic deaths/total No. of mice; for LTS: tumor free at 60 days. The method, then: Dosages of the drugs were administered ip according to preestablished protocols, usually at 4-day intervals. The studies were done over a 60-day period and the date of death for each animal was recorded. The % T/C was determined using the mean survival time (MST) for each group according to the formula % T/C = [(MST treated)/(MST control)] x 100 [formula]
as §5, with “• a) L1210 murine leukemia cells” for “P388 Murine Leukemia cells”, “by weekly” for “by serial”, “in BDF1” for “in DBA2”, “mice. For test purposes, mice were inoculated i.p. with 10^6 L1210 cells and treatment was initiated 24 hours later. The desired dose of drug was administered on days 1, 5 and 9. Mice were observed daily for signs of toxicity and survival. The date of death was recorded for each animal that died or was sacrificed during the 60-day study. […]” for “mice.”, “with 10^5 L1210” for “with 10^6 P388”, “The desired” for “The i.p”

[4] abbreviates: MTT assay, 144 hrs drug exposure.

Turning to `O=C1c2c(O)ccc(O)c2C(=O)c2c(NCCNCCO)ccc(NCCNCCO)c21` [Mitoxantrone, 5,8-dihydroxy-1,4-bis{[2-(2-hydroxyethylamino)ethyl]amino}anthracene-9,10-dione, reference compound], the IC50 is 0.01 ± 0.009 µg/mL (≈ 0.0225 µM) in data set [1] (144 h) and 0.29 ± 0.1 µg/mL (≈ 0.652 µM) in the data set on Lovo/DX. The compound also displayed a R.I. in the data set with Lovo/DX of 29.0. Besides, the “T/C% (range)” value with P388 Murine Leukemia [2] (2 mg/kg/day iv days 1,4,7) is 162(154-167) %; with P388 Murine Leukemia [2] (3 mg/kg/day iv days 1,4,7) it was 185(167-217) %; with P388 Murine Leukemia [2] (4 mg/kg/day iv days 1,4,7), 118(89-133) %. Moreover, the TOX in the data set on P388 Murine Leukemia [2] (2 mg/kg/day iv days 1,4,7) is reported as 0/42; with P388 Murine Leukemia [2] (3 mg/kg/day iv days 1,4,7) it was 4/78; in the data set on P388 Murine Leukemia [2] (4 mg/kg/day iv days 1,4,7), 20/24; in the data set on P388 Murine Leukemia [3] (1.5 mg/kg/day ip days 1,5,9), 6/26; with P388 Murine Leukemia [3] (3 mg/kg/day ip days 1,5,9), 21/42; in the data set with L1210 murine leukemia (1.5 mg/kg/day ip days 1,5,9) it was 0/8. Besides, in the data set on L1210 murine leukemia (3 mg/kg/day ip days 1,5,9), the TOX is given as 1/8. Also, the LTS with P388 Murine Leukemia [2] (2 mg/kg/day iv days 1,4,7) is 0/42; in the data set on P388 Murine Leukemia [2] (3 mg/kg/day iv days 1,4,7), 0/78; in the data set with P388 Murine Leukemia [2] (4 mg/kg/day iv days 1,4,7), 0/24; in the data set with L1210 murine leukemia (1.5 mg/kg/day ip days 1,5,9), 1/8; in the data set with L1210 murine leukemia (3 mg/kg/day ip days 1,5,9), 1/8. For the same compound, the figures for the “LTS (day 60)” value in the data set with P388 Murine Leukemia [3] (1.5 mg/kg/day ip days 1,5,9) and in the data set with P388 Murine Leukemia [3] (3 mg/kg/day ip days 1,5,9) were 1/26 and 1/42, respectively. The “% T/C (range)” value in the data set with P388 Murine Leukemia [3] (1.5 mg/kg/day ip days 1,5,9) is on record as 186(160-225) %; with P388 Murine Leukemia [3] (3 mg/kg/day ip days 1,5,9) it was 173(142-205) %. Moreover, the results for the “%T/C” value in the data set with L1210 murine leukemia (1.5 mg/kg/day ip days 1,5,9) and in the data set with L1210 murine leukemia (3 mg/kg/day ip days 1,5,9) were 188% and 194%, respectively.
Consider `O=C1c2ccccc2C(=O)c2c(NCCNCCO)ccc(NCCNCCO)c21` [Ametantrone, 1,4-bis{[2-(2-hydroxyethylamino)ethyl]amino}anthracene-9,10-dione, reference compound], for which the IC50 in data set [1] (setting [4]) was determined as 0.33 ± 0.1 µg/mL (≈ 0.8 µM). Besides, in the data set on Lovo/DX, the IC50 worked out at 33.4 ± 13.9 µg/mL (≈ 81 µM) and the R.I. is reported as 101.2.
Consider `O=C1c2ccncc2C(=O)c2c(NCCN3CCCC3)ccc(NCCN3CCCC3)c21` [Compound 10d, 6,9-Bis{[2-(1'-pyrrolidino)ethyl]amino}benzo[g]isoquinoline-5,10-dione], for which the IC50 in data set [1] (setting [4]) is 0.2 ± 0.03 µg/mL (≈ 0.461 µM). Also, in the data set with Lovo/DX, the IC50 stood at 0.52 ± 0.15 µg/mL (≈ 1.2 µM); the R.I. is listed as 2.6; the “cross resistance with mitoxantrone and ametantrone” value (“cross resistance” below) is reported as “no cross resistance”.
As for `CCN(CC)CCNc1ccc(NCCN(CC)CC)c2c1C(=O)c1ccncc1C2=O` [Compound 10b, 6,9-Bis{[2-(diethylamino)ethyl]amino}benzo[g]isoquinoline-5,10-dione], the IC50 in data set [1] (setting [4]) is 0.29 ± 0.05 µg/mL (≈ 0.663 µM). Moreover, in the data set on Lovo/DX, the IC50 was determined as 0.69 ± 0.1 µg/mL (≈ 1.58 µM); the R.I. is listed as 2.4; the “cross resistance” value is given as “no cross resistance”.
For `O=C1c2ccncc2C(=O)c2c(NCCN3CCOCC3)ccc(NCCN3CCOCC3)c21` [Compound 10e, 6,9-Bis{[2-(4'-morpholino)ethyl]amino}benzo[g]isoquinoline-5,10-dione], in data set [1] (setting [4]), the IC50 amounted to 5.32 ± 1.55 µg/mL (≈ 11.4 µM). Further, in the data set with Lovo/DX, the IC50 turned out to be 2.29 ± 0.67 µg/mL (≈ 4.92 µM); the R.I. is on record as 0.4; the “cross resistance” value is on record as “no cross resistance”.
Take `NCCCNc1ccc(NCCCN)c2c1C(=O)c1ccncc1C2=O` [Compound 12a, 6,9-Bis{[3-(amino)propyl]amino}benzo[g]isoquinoline-5,10-dione]: the IC50 in data set [1] (setting [4]) was 1.64 ± 0.02 µg/mL (≈ 4.64 µM). Further, in the data set on Lovo/DX, the IC50 was determined as 20.9 ± 0.72 µg/mL (≈ 59.1 µM) and the R.I. came out at 12.7.
Taken in the same sequence, the figures for `COc1cccc2c1C(=O)c1c(O)c3c(c(O)c1C2=O)C[C@@](O)(C(=O)CO)C[C@@H]3O[C@H]1C[C@H](N)[C@H](O)[C@H](C)O1` [Doxorubicin, reference compound] were 0.03 ± 0.009 µg/mL (≈ 0.0552 µM), 4.28 ± 1.8 µg/mL (≈ 7.87 µM) and 142.7.
`CN(C)CCCNc1ccc(NCCCN(C)C)c2c1C(=O)c1ccncc1C2=O` [Compound 12c, 6,9-Bis{[3-(dimethylamino)propyl]amino}benzo[g]isoquinoline-5,10-dione]: the IC50 in data set [1] (setting [4]) was found to be 0.15 ± 0.07 µg/mL (≈ 0.366 µM). For the same compound, in the data set with Lovo/DX, the IC50 was 0.36 ± 0.04 µg/mL (≈ 0.879 µM); the R.I. is 2.4; the “cross resistance” value was “no cross resistance”.
